Data taken from the NIST ThermoML archive (doi:10.1021/acs.jced.8b00070).

Experiment: xn = mol fraction of the nth substance listed
Details: Liquid; for viscosity: Oscillating disk viscometry; for mass density: Vibrating tube method

CCCCn1cc[n+](C)c1.F[B-](F)(F)F [1-butyl-3-methylimidazolium tetrafluoroborate] + O
Details | mass density, x1 = 0.01 [kg/m3] | mass density, x1 = 0.0227 [kg/m3] | mass density, x1 = 0.0392 [kg/m3] | mass density, x1 = 0.0616 [kg/m3] | mass density, x1 = 0.0938 [kg/m3] | viscosity, x1 = 0.01 [mPa·s] | viscosity, x1 = 0.0227 [mPa·s] | viscosity, x1 = 0.0392 [mPa·s] | viscosity, x1 = 0.0616 [mPa·s] | viscosity, x1 = 0.0938 [mPa·s]
293.15 K, 101 kPa | – | – | – | – | – | 1.07 | 1.35 | 1.84 | 2.28 | 3.04
293.15 K, 101.3 kPa | 1018.9 | 1038.1 | 1060.4 | 1079.5 | 1103.7 | – | – | – | – | –
298.15 K, 101 kPa | – | – | – | – | – | 0.95 | 1.19 | 1.6 | 1.98 | 2.69
298.15 K, 101.3 kPa | 1017.1 | 1036 | 1058 | 1076.7 | 1100.6 | – | – | – | – | –
303.15 K, 101 kPa | – | – | – | – | – | 0.84 | 1.05 | 1.4 | 1.75 | 2.34
303.15 K, 101.3 kPa | 1015.2 | 1033.5 | 1055.3 | 1073.6 | 1097.2 | – | – | – | – | –
308.15 K, 101 kPa | – | – | – | – | – | 0.76 | 0.95 | 1.25 | 1.56 | 2.06
308.15 K, 101.3 kPa | 1013.2 | 1031.3 | 1052.6 | 1070.7 | 1093.9 | – | – | – | – | –
313.15 K, 101 kPa | – | – | – | – | – | 0.69 | 0.86 | 1.13 | 1.4 | 1.84
313.15 K, 101.3 kPa | 1010.9 | 1028.6 | 1049.8 | 1067.5 | 1090.5 | – | – | – | – | –
318.15 K, 101 kPa | – | – | – | – | – | 0.64 | 0.79 | 1.02 | 1.27 | 1.66
318.15 K, 101.3 kPa | 1008.6 | 1025.9 | 1046.9 | 1064.3 | 1087.4 | – | – | – | – | –
323.15 K, 101 kPa | – | – | – | – | – | 0.59 | 0.74 | 0.94 | 1.16 | 1.48
323.15 K, 101.3 kPa | 1006.1 | 1023.4 | 1044 | 1061.2 | 1084.1 | – | – | – | – | –
328.15 K, 101 kPa | – | – | – | – | – | 0.55 | 0.69 | 0.88 | 1.07 | 1.31
328.15 K, 101.3 kPa | 1001.8 | 1019.8 | 1041.4 | 1058.3 | 1080.9 | – | – | – | – | –
333.15 K, 101 kPa | – | – | – | – | – | 0.53 | 0.62 | 0.82 | 0.99 | 1.26
333.15 K, 101.3 kPa | 999.2 | 1017.6 | 1040.6 | 1057.4 | 1079.9 | – | – | – | – | –

NCCO [2-aminoethan-1-ol] + O
101.3 kPa
Details | mass density, x1 = 0.0394 [kg/m3] | mass density, x1 = 0.087 [kg/m3] | mass density, x1 = 0.1456 [kg/m3] | mass density, x1 = 0.2197 [kg/m3] | viscosity, x1 = 0.0394 [mPa·s] | viscosity, x1 = 0.087 [mPa·s] | viscosity, x1 = 0.1456 [mPa·s] | viscosity, x1 = 0.2197 [mPa·s]
293.15 K | 1005.3 | 1011.8 | 1018.9 | 1025.7 | 1.19 | 2.1 | 3.06 | 5.58
298.15 K | 1003.8 | 1009.9 | 1016.3 | 1022.7 | 1.06 | 1.71 | 2.69 | 4.67
303.15 K | 1002.1 | 1007.7 | 1013.7 | 1019.7 | 0.94 | 1.47 | 2.29 | 3.91
308.15 K | 1000.3 | 1005.6 | 1011.2 | 1016.8 | 0.85 | 1.3 | 1.91 | 3.28
313.15 K | 998.2 | 1003.2 | 1008.5 | 1013.6 | 0.76 | 1.15 | 1.69 | 2.77
318.15 K | 996 | 1000.7 | 1005.7 | 1010.5 | 0.69 | 1.03 | 1.5 | 2.39
323.15 K | 993.8 | 998.2 | 1002.8 | 1007.3 | 0.63 | 0.93 | 1.33 | 2.11
328.15 K | 988.9 | 995.8 | 1000.1 | 1004.4 | 0.58 | 0.85 | 1.17 | 1.85
333.15 K | 987.2 | 995.1 | 999.3 | 1003.2 | 0.54 | 0.79 | 1.05 | 1.65
